Measurements published in the NIST ThermoML archive (doi:10.1021/je700260f).

Conditions: 323.15 K, Liquid, Vibrating tube method

FC(C(F)(F)F)C(F)(F)F [1,1,1,2,3,3,3-heptafluoropropane]
Conditions	mass density [kg/m3]
9744 kPa	1360.2
9763 kPa	1360.3
9782 kPa	1360.5
9800 kPa	1360.6
9817 kPa	1360.8
9836 kPa	1360.8
9857 kPa	1361.2
9876 kPa	1361.3
9894 kPa	1361.4
10348 kPa	1364.7
10377 kPa	1364.9
10394 kPa	1364.9
10416 kPa	1365.1
10433 kPa	1365.2
10451 kPa	1365.3
10468 kPa	1365.4
10492 kPa	1365.7
10512 kPa	1365.7
10532 kPa	1365.9
10553 kPa	1366
10577 kPa	1366.2
10595 kPa	1366.3
10749 kPa	1367.4
10766 kPa	1367.5
10786 kPa	1367.7
10804 kPa	1367.8
10828 kPa	1367.9
10845 kPa	1368.1
10864 kPa	1368.3
10894 kPa	1368.4
11387 kPa	1371.8
11407 kPa	1371.9
11425 kPa	1372
11446 kPa	1372.2
11463 kPa	1372.3
11483 kPa	1372.5
11501 kPa	1372.7
11519 kPa	1372.7
11540 kPa	1372.9
12697 kPa	1380.5
12717 kPa	1380.6
12774 kPa	1380.8
12791 kPa	1381
12809 kPa	1381.2
12835 kPa	1381.4
12849 kPa	1381.5
12876 kPa	1381.6
12893 kPa	1381.6
12913 kPa	1381.8
12933 kPa	1382
12950 kPa	1382.2
12971 kPa	1382.2
12984 kPa	1382.4
13009 kPa	1382.4
13183 kPa	1383.5
13201 kPa	1383.6
13222 kPa	1383.8
13245 kPa	1383.9
13732 kPa	1386.8
13757 kPa	1387.1
13777 kPa	1387.2
13803 kPa	1387.2
13826 kPa	1387.4
13851 kPa	1387.5
13891 kPa	1387.8
13911 kPa	1387.9
13940 kPa	1388.1
13964 kPa	1388.4
13981 kPa	1388.6
14001 kPa	1388.5
14024 kPa	1388.6
14045 kPa	1388.8
14066 kPa	1388.9
14089 kPa	1389.2
14106 kPa	1389.2
14126 kPa	1389.3
14223 kPa	1390
14245 kPa	1390
14268 kPa	1390.2
14290 kPa	1390.1
14307 kPa	1390.4
14331 kPa	1390.5
14346 kPa	1390.7
14525 kPa	1391.7
14547 kPa	1392
14564 kPa	1392
14584 kPa	1392
14606 kPa	1392.1
14624 kPa	1392.3
14649 kPa	1392.4
14665 kPa	1392.5
14689 kPa	1392.6
14710 kPa	1392.9
15240 kPa	1396
15711 kPa	1398.5
15733 kPa	1398.8
15763 kPa	1398.9
15783 kPa	1399.1
15811 kPa	1399.3
15834 kPa	1399.3
15857 kPa	1399.5
15884 kPa	1399.6
15907 kPa	1399.8
15931 kPa	1400
15952 kPa	1399.9
15979 kPa	1400.1
15995 kPa	1400.2
16018 kPa	1400.3
16047 kPa	1400.5
16072 kPa	1400.6
16209 kPa	1401.3
16238 kPa	1401.5
16257 kPa	1401.7
16276 kPa	1401.7
16300 kPa	1401.9
16318 kPa	1402
16339 kPa	1402.1
16364 kPa	1402.3
16385 kPa	1402.4
16407 kPa	1402.6
16429 kPa	1402.6
16451 kPa	1402.8
16474 kPa	1402.8
16502 kPa	1403
16520 kPa	1403.2
16544 kPa	1403.3
16566 kPa	1403.2
16584 kPa	1403.6
16603 kPa	1403.7
16629 kPa	1403.6
16649 kPa	1403.9
16677 kPa	1404.1
16763 kPa	1404.5
16808 kPa	1404.8
16827 kPa	1404.9
16854 kPa	1405.1
16872 kPa	1405
16898 kPa	1405.2
16920 kPa	1405.3
16947 kPa	1405.5
16978 kPa	1405.6
16998 kPa	1405.8
17027 kPa	1406
17050 kPa	1406
17073 kPa	1406.2
17097 kPa	1406.2
17120 kPa	1406.4
17141 kPa	1406.4
17170 kPa	1406.7
17197 kPa	1406.8
17220 kPa	1406.9
17330 kPa	1407.5
17378 kPa	1407.6
17898 kPa	1410.5
17952 kPa	1410.9
17976 kPa	1411.1
17998 kPa	1411.2
18024 kPa	1411.4
18049 kPa	1411.4
18081 kPa	1411.6
18105 kPa	1411.8
18129 kPa	1411.7
18160 kPa	1412
18184 kPa	1412.1
18240 kPa	1412.4
18317 kPa	1412.9
18547 kPa	1414
18567 kPa	1414.1
18596 kPa	1414.3
18614 kPa	1414.3
18862 kPa	1415.5
18885 kPa	1415.8
18905 kPa	1415.8
18929 kPa	1416
18952 kPa	1416.1
18981 kPa	1416.2
19007 kPa	1416.4
19162 kPa	1417
19197 kPa	1417.4
20153 kPa	1422
20175 kPa	1422.2
20203 kPa	1422.2
20225 kPa	1422.4
20251 kPa	1422.6
20283 kPa	1422.7
20313 kPa	1422.8
20340 kPa	1422.8
20370 kPa	1423.2
20404 kPa	1423.3
20429 kPa	1423.4
20481 kPa	1423.6
21768 kPa	1429.8
21806 kPa	1430
21829 kPa	1430.1
21855 kPa	1430
21886 kPa	1430.3
21913 kPa	1430.5
21936 kPa	1430.6
21971 kPa	1430.7
22991 kPa	1435.4
23635 kPa	1438.4
23664 kPa	1438.4
23690 kPa	1438.6
23714 kPa	1438.6
23750 kPa	1438.7
